Read-outs that look alike come from different tables or passages of the source.
What was measured:
[1] = pharmacokinetic studies in rats; settings: male, Sprague-Dawley, rat; for clearance / half-life: iv; for bioavailability: po
Protocol: Male Sprague-Dawley rats, weighing 250-400 g, were obtained from Charles Rivers Laboratories. Pharmacokinetic studies were conducted in three groups of rats; each group contained three animals. All groups were dosed with a solution formulation. The first group of three rats received an intravenous dose, administered under isoflurane anesthetic. The second group received an intraperitoneal dose and the third group received an oral dose, administered by gavage. Sequential blood samples were obtained from a tail vein of each animal for 8-24 hours after dosing. Plasma was separated by centrifugation and stored frozen until analysis.
Half life […] and plasma clearance values are based on intravenous administration (3 micromole/kg).
Half life (t1/2) and plasma clearance values are based on intravenous administration (3 micromole/kg).

human CB2 receptors = molecular target: T1, human CB2 receptors (Homo sapiens, UniProt P34972); experiment: human CB2 radioligand binding assay ([3H]CP 55,940 competition); settings: HEK293 membranes, 0.5 nM [3H]CP 55,940
T1 construct: expressed in transfected cells; host or cells: HEK293
In short: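 Displacement of 0.5 nM [3H]CP 55,940 over 0.01 nM-10 μM test compound, measured on human CB2 membranes from stably transfected HEK293 cells. Incubation 90 min at 30 °C in Tris/EDTA/MgCl2/BSA, pH 7.4, then filter-bound radioactivity counted; 10 μM unlabeled CP 55,940 defined nonspecific binding.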

rat CB2 = molecular target: T2, rat CB2 (Rattus norvegicus, UniProt Q9QZN9); experiment: rat CB2 radioligand binding assay ([3H]CP 55,940 competition); set-up: expressed in transfected cells; host or cells: HEK293; settings: HEK293 membranes, 0.5 nM [3H]CP 55,940
T2 sequence (Q9QZN9 1-360): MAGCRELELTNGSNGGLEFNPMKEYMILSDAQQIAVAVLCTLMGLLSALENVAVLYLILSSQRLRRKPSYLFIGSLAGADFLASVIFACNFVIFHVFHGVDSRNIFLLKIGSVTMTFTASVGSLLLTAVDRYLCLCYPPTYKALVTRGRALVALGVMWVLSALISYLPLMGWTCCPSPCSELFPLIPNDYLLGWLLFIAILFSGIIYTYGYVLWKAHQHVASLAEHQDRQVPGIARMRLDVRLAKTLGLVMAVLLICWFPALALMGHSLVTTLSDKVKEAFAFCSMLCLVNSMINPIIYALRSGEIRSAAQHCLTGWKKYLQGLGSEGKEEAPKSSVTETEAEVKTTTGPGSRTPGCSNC
In short: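 Competition binding against 0.5 nM [3H]CP 55,940 (pH 7.4 buffer with 0.5 mg/mL BSA, 30 °C, 45 min), with displacers spanning 0.01 nM–10 μM at five concentrations. Receptor source: stably transfected HEK293 membranes, 20 μg/well. Nonspecific binding defined by 10 μM unlabeled CP 55,940; readout by filtration and counting.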

T1 sequence (P34972 whole entry): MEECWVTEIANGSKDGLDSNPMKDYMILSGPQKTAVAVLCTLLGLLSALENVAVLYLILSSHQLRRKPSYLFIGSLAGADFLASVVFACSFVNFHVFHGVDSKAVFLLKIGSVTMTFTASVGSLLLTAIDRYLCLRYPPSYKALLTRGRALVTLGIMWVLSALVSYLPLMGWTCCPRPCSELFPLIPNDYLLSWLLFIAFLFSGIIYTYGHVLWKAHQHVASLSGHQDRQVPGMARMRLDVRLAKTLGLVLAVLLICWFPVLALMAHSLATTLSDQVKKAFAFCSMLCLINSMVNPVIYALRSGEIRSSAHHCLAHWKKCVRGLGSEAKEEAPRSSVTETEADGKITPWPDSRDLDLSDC

SMILES | clearance ([1]; in vivo, 3 micromole/kg) [mL/min/kg] | half-life ([1]; in vivo, 3 micromole/kg) [h] | bioavailability ([1]; in vivo, 10 micromole/kg) [%] | Ki (human CB2 receptors; human CB2 (Ki, nM)) [nM] | Ki (rat CB2; rat CB2 (Ki, nM)) [nM] | other results
Cn1c(C(C)(C)C)c/c(=N\C(=O)c2cccc(C(F)(F)F)c2F)n1CC1CC1 [A, reference compound] | 10 | 0.7 | 26 |  |  | 
CCCCn1/c(=N/C(=O)c2cc(Cl)ccc2OC)cc(C(C)(C)C)n1C [B, reference compound] | 40 | 1.7 | 11 |  |  | 
CC(C)Cn1/c(=N/C(=O)c2cccc(C(F)(F)F)c2F)cc(C(C)(C)C)n1C [C, reference compound] | 26.7 | 0.8 | 45 |  |  | 
CCCCn1/c(=N/C(=O)c2cc(C(F)(F)F)ccc2Cl)cc(C(C)(C)C)n1C [D, reference compound] | 56.7 | 0.3 | 10 |  |  | 
CCCCn1/c(=N/C(=O)c2cc(C(F)(F)F)ccc2OC)cc(C(C)(C)C)n1C [E, reference compound] | 33.3 | 2.9 | 9 |  |  | 
CCCCCn1/c(=N/C(=O)c2cc(C(F)(F)F)ccc2OCC(C)(C)O)cc(C(C)(C)C)n1C [Example 99, N-[(3E)-5-tert-butyl-1-methyl-2-pentyl-1,2-dihydro-3H-pyrazol-3-ylidene]-2-(2-hydroxy-2-methylpropoxy)-5-(trifluoromethyl)benzamide] |  | 5.6 |  | 9.2 | 4.4 | clearance [1]: 18.3 mL/min/kg; bioavailability [1]: 37%
CC(C)c1c/c(=N\C(=O)c2cc(C(F)(F)F)ccc2OCC(C)(C)O)n(CC2CCCC2)n1C [Example 114, N-[(3E)-2-(cyclopentylmethyl)-5-isopropyl-1-methyl-1,2-dihydro-3H-pyrazol-3-ylidene]-2-(2-hydroxy-2-methylpropoxy)-5-(trifluoromethyl)benzamide] |  |  |  |  | 35 | Ki (human CB2 receptors; read-out: human CB2 (Ki)): 129 nM
Cn1c(C(C)(C)C)c/c(=N\C(=O)c2cc(C(F)(F)F)ccc2OCC(C)(C)CO)n1C[C@H]1CCCO1 [Example 116, N-{(3E)-5-tert-butyl-1-methyl-2-[(2R)-tetrahydrofuran-2-ylmethyl]-1,2-dihydro-3H-pyrazol-3-ylidene}-2-(3-hydroxy-2,2-dimethylpropoxy)-5-(trifluoromethyl)benzamide] |  |  |  |  |  | Ki (human CB2 receptors; read-out: human CB2 (Ki)): > 1000 nM; Ki (rat CB2; read-out: rat CB2 (Ki)): 199 nM
CCC(O)(CC)COc1ccc(C(F)(F)F)cc1C(=O)/N=c1\cc(C(C)(C)C)n(C)n1C[C@H]1CCCO1 [Example 117, N-{(3E)-5-tert-butyl-1-methyl-2-[(2R)-tetrahydrofuran-2-ylmethyl]-1,2-dihydro-3H-pyrazol-3-ylidene}-2-(2-ethyl-2-hydroxybutoxy)-5-(trifluoromethyl)benzamide] |  |  |  | 83 | 69 | 
COCCCn1/c(=N/C(=O)c2cc(C(F)(F)F)ccc2OCC(C)(C)O)cc(C(C)(C)C)n1C [Example 122, N-[(3E)-5-tert-butyl-2-(3-methoxypropyl)-1-methyl-1,2-dihydro-3H-pyrazol-3-ylidene]-2-(2-hydroxy-2-methylpropoxy)-5-(trifluoromethyl)benzamide] |  |  |  | 91 | 27 | 
CCCn1/c(=N/C(=O)c2cc(C(F)(F)F)ccc2OCC(C)(C)O)cc(C(C)(C)C)n1C [Example 125, N-[(3E)-5-tert-butyl-1-methyl-2-propyl-1,2-dihydro-3H-pyrazol-3-ylidene]-2-(2-hydroxy-2-methylpropoxy)-5-(trifluoromethyl)benzamide] |  |  |  |  | 86 | Ki (human CB2 receptors; read-out: human CB2 (Ki)): 211 nM
Cn1c(C(C)(C)C)c/c(=N\C(=O)c2cc(Br)ccc2OCC(C)(C)O)n1C[C@H]1CCCO1 [Example 128, 5-bromo-N-{(3E)-5-tert-butyl-1-methyl-2-[(2R)-tetrahydrofuran-2-ylmethyl]-1,2-dihydro-3H-pyrazol-3-ylidene}-2-(2-hydroxy-2-methylpropoxy)benzamide] |  |  |  | 15 | 4.9 | 
CC(=O)NCCOc1ccc(C(F)(F)F)cc1C(=O)/N=c1\cc(C(C)(C)C)n(C)n1CC1CCC1 [Example 130, 2-[2-(acetylamino)ethoxy]-N-[(3E)-5-tert-butyl-2-(cyclobutylmethyl)-1-methyl-1,2-dihydro-3H-pyrazol-3-ylidene]-5-(trifluoromethyl)benzamide] |  |  |  | 5 | 2.9 | 
COC(=O)c1ccc(OCC(C)(C)O)c(C(=O)/N=c2\cc(C(C)(C)C)n(C)n2C[C@H]2CCCO2)c1 [Example 132, methyl 3-[({(3E)-tert-butyl-1-methyl-2-[(2R)-tetrahydrofuran-2-ylmethyl]-1,2-dihydro-3H-pyrazol-3-ylidene}amino)carbonyl]-4-(2-hydroxy-2-methylpropoxy)benzoate] |  |  |  |  |  | Ki (human CB2 receptors; read-out: human CB2 (Ki)): 127 nM; Ki (rat CB2; read-out: rat CB2 (Ki)): 51 nM
CSCCCOc1ccc(C(F)(F)F)cc1C(=O)/N=c1\cc(C(C)(C)C)n(C)n1CC1CCC1 [Example 133, N-[(3E)-5-tert-butyl-2-(cyclobutylmethyl)-1-methyl-1,2-dihydro-3H-pyrazol-3-ylidene]-2-[3-(methylthio)propoxy]-5-(trifluoromethyl)benzamide] |  |  |  | 13 | 15 | 
Cn1c(C(C)(C)C)c/c(=N\C(=O)c2cc(C(F)(F)F)ccc2OCCCS(C)(=O)=O)n1CC1CCC1 [Example 134, N-[(3E)-5-tert-butyl-2-(cyclobutylmethyl)-1-methyl-1,2-dihydro-3H-pyrazol-3-ylidene]-2-[3-(methylsulfonyl)propoxy]-5-(trifluoromethyl)benzamide] |  |  |  | 22 | 40 | 
Cn1c(C(C)(C)C)c/c(=N\C(=O)c2cc(C(F)(F)F)ccc2OCC(C)(C)O)n1CCCC(F)(F)F [Example 135, N-[(3E)-5-tert-butyl-1-methyl-2-(4,4,4-trifluorobutyl)-1,2-dihydro-3H-pyrazol-3-ylidene]-2-(2-hydroxy-2-methylpropoxy)-5-(trifluoromethyl)benzamide] |  |  |  | 23 | 5.5 | 
CCCCn1/c(=N/C(=O)c2cc(C(F)(F)F)ccc2SCC(C)O)cc(C(C)(C)C)n1C (centres unmarked) [Example 136, N-[(3E)-2-butyl-5-tert-butyl-1-methyl-1,2-dihydro-3H-pyrazol-3-ylidene]-2-[(2-hydroxypropyl)thio]-5-(trifluoromethyl)benzamide] |  |  |  | 44 | 16 | 
CCCCn1/c(=N/C(=O)c2cc(C(F)(F)F)ccc2SCC(C)(C)O)cc(C(C)(C)C)n1C [Example 137] |  |  |  | 55 | 26 | 
CCCCn1/c(=N/C(=O)c2cc([N+](=O)[O-])ccc2OCC(C)(C)O)cc(C(C)(C)C)n1C [Example 138, N-[(3E)-2-butyl-5-tert-butyl-1-methyl-1,2-dihydro-3H-pyrazol-3-ylidene]-2-(2-hydroxy-2-methylpropoxy)-5-nitrobenzamide] |  |  |  | 1.6 | 19 | 
CCCCn1/c(=N/C(=O)c2cc(C(F)(F)F)ccc2SCC(N)=O)cc(C(C)(C)C)n1C [Example 140, 2-[(2-amino-2-oxoethyl)thio]-N-[(3E)-2-butyl-5-tert-butyl-1-methyl-1,2-dihydro-3H-pyrazol-3-ylidene]-5-(trifluoromethyl)benzamide] |  |  |  | 136 | 11 | 
COc1ccc(C(F)(F)F)cc1C(=O)/N=c1\cc(C(C)(C)C)n(C)n1CC1CC1 [F, reference compound] | 63.3 | 2.1 | 11 |  |  | 
CCCCn1/c(=N/C(=O)c2cc(C(F)(F)F)ccc2OCC(C)(C)OC)cc(C(C)(C)C)n1C [G, reference compound] | 45 | 1.5 | 5 |  |  | 

From patent publication US8188135B2, “Compounds as cannabinoid receptor ligands” (priority 2008, dated 2012)
